Data from patent US9701681B2, “Fused ring heteroaryl compounds and their use as Trk inhibitors” (CMG Pharmaceutical Co., Ltd., priority 2014, dated 2017).

Legend:
TRK A, B & C kinase = biological target: T1, TRK A, B & C kinase; test: TRK A, B & C kinase assay (ADP-Glo / HTRF KinEASE-TK); type: biochemical; conditions: ADP-Glo or HTRF KinEASE-TK kit, isoform not specified, read-out: IC50 (nM) Enzymatic assay
T1 construct: fused on or other part: Carna's Trk kinases are usually GST-tagged cytoplasmic domains
Description: ADP-Glo assay kit was purchased from Promega. poly (Glu, Tyr), Magnesium sulfate, Bovine serum albumin (BSA) and dimethylsulfoxide(DMSO) were purchased from Sigma-Aldrich. Tris-HCl buffer was purchased from BD Gentest. HTRF KinEASE-TK kit was purchased from cisbio. TRK A, B & C kinase was purchased from Carna bioscience.
Kinase assay was performed for Chemical Compounds 1-61 using two methods using luminescent ADP-Glo assay kit (Promega) and HTRF KinEASE-TK assay kit (cisbio). The luminescent ADP-Glo assay kit (Promega) measures ADP formed from a kinase reaction. ADP converted into ATP, which is then converted into light by Ultra-Glo luciferase. The HTRF KinEASE-TK assay kit (cisbio) measures tyrosine kinase activities using one substrate and a universal detection system.
ADP-Glo Assay Kit (Promega)
The protein kinase assay was performed for Chemical Compounds 1-61 at […] concentrations are 0.4 ng/ul of TrKA, 0.5 ng/ul of TrKB and 3 ng/ul of TrKC, respectively), 5 μL of 1 ug/ul stock solution of poly(glu, Tyr), 5 μL of compounds or assay buffer, 5 μL of ATP (125 μM stock solution).
The assay was started by incubating the reaction mixture in a 96-well plate at 30° C. for 1 hr. After the incubation, the assay was terminated by the addition of 25 […] Detection Reagent was added, and the 96-well plate was shaken and then incubated for additional 30 min at ambient temperature. The 96-well reaction plate was then read on an Enspire plate reader. The IC50 values were derived through a curve fitting using SigmaPlot.
HTRF KinEASE-TK Assay Kit (Cisbio)
The HTRF KinEASE-TK assay was performed for Chemical Compounds 1-61 in 384-well low volume microplate (Greiner). The HTRF KinEASE-TK assay format involves the two steps. The first step is kinase reaction step. This kinase reaction step was performed at RT (room temperature) in final volume of 10 ul according to the following assay reaction recipe: 10 ul of kinase mixture (Kinase (2 ul)+ATP (2 ul)+Substrate (2 ul)+Compound (4 ul)). Kinase final concentrations were 0.3 ng/ul of TRKA, 0.1 ng/ul of TRKB, 0.03 ng/ul of TRKC, respectively. ATP final concentrations were 14.7 uM (TRKA), 4.77 uM (TRKB), 25.6 uM (TRKC) respectively. TK-substrate final concentration was 0.3 ng/ul. The mixtures exposed to Dose response concentration (DRC) compound from 0 to 100 nM for 40 min. During the kinase reaction step, the kinase reaction was started by the addition of ATP. Kinase phosphorylates the substrate.
The second is detection step. 10 ul of detection reagents (5 ul Sa-XL 665 in EDTA+5 ul TK Antibody-Eu in EDTA) was added to kinase mixture. This step was performed at room temperature for 1 hr. The detection reagent detects phosphorylated substrates.
Finally 384-well reaction plate was then read on FlexStation 3 machine. The fluorescence was measured at 620 nm (Cryptate) and 665 nm (XL665). A ratio is calculated ([…]/620)×10^4 for each well. The IC50 value was derived through a curve fitting using GraphPad Prism. Table 1 below includes the results of the assays.

KM12-luc cells = test: Cell proliferation assay (KM12); conditions: 72 hours exposure, read-out: IC50 (nM) Cell-based assay (KM12)
Description: (§1) Doxorubicin was purchased from Sigma Aldrich (D1515). All compounds were diluted in DMSO (Sigma Aldrich, D2650). AlamarBlue® cell viability reagent was purchased from Thermo Scientific (88952). CellTiter 96® AQueous One Solution Cell proliferation assay was purchased from Promega. KM12-luc cells were obtained from JCRB (National Institute of Health Sciences, Tokyo, Japan). They were maintained in DMEM medium (GIB-11965-118) supplemented with 10% fetal bovine serum (Gibco, 16000-044) and MEM Non-Essential Amino Acids Solution (Thermo Scientific, 11140-050). TF-1 cells were obtained from ATCC. They were maintained in RPMI medium (GIB-A10491) supplemented with 10% fetal bovine serum (Gibco, 16000-044), GM-CSF (Thermo Scientific, 11140-050), and β-NGF (R&D systems). Trypsin/EDTA was purchased from Gibco (GIB-25300-054, 0.05%). 96-well plates were purchased from Corning Inc.
(§2) The proliferation assay was performed for Chemical Compounds 1-61 s in media supplemented with 10% FBS, using AlamarBlue® cell viability reagent or CellTiter 96® AQueous One Solution Cell proliferation assay kit. Cells were cultured in humidified 37° C. incubator with 5% CO2. To evaluate the antiproliferation activity of compounds, TF-1 cells were adjusted to GM-CSF free media (RPMI, 10% FBS, and 1% penicillin-streptomycin) for 16 hr and were seeded in 96-well plates at 30,000 cells/well with medium (RPMI, 10% FBS, 1% penicillin-streptomycin and 10 ng/ml human β-NGF). KM12-luc were seeded at 10,000 cells per well into 96-well plates. After overnight incubation, serial dilutions of compounds were added to triplicate wells, and cells were exposed for 72 hours. The final concentration of DMSO was adjusted to 0.5% in media. Quantitation of cell growth was assessed using two kinds of reagent. 20 ul of AlamarBlue® reagent in an amount equal to 10% of the culture volume was added to each well and were incubated in humidified 37° C. incubator with 5% CO2 for 2 hr. Otherwise, 20 ul of CellTiter 96® reagent was added to each well and were incubated in the same conditions as previously described. Data were plotted, and GI50 values were calculated using GraphPad software. Table 1 below includes the results of the assays.

TF-1 cells = test: Cell proliferation assay (TF-1); conditions: 10 ng/ml human β-NGF, 72 hours exposure, read-out: IC50 (nM) Cell-based assay (TF-1)
Description: as §1, §2

Compound	IC50 (TRK A, B & C kinase) [nM]	IC50 (KM12-luc cells) [nM]	IC50 (TF-1 cells) [nM]
O=C(/C=C/c1cnn2ccc(N3CCCC3c3cc(F)ccc3F)nc12)N1CC(O)C1 (stereo not drawn) [Chemical Compound 47, (E)-3-(5-(2-(2,5-difluorophenyl)pyrrolidin-1-yl)pyrazolo[1,5-a]pyrimidin-3-yl)-1-(3-hydroxyazetidin-1-yl)prop-2-en-1-one]	< 10	< 100	< 100
Cc1nnc(-c2cnn3ccc(N4CCCC4c4cncc(F)c4)nc23)s1 (stereo not drawn) [Chemical Compound 11, 2-(5-(2-(5-fluoropyridin-3-yl)pyrrolidin-1-yl)pyrazolo[1,5-a]pyrimidin-3-yl)-5-methyl-1,3,4-thiadiazole]	< 10	< 100	< 100
O=C(/C=C/c1cnn2ccc(N3CCC[C@@H]3c3cc(F)ccc3F)nc12)N1CCNCC1 [Chemical Compound 50, (R,E)-3-(5-(2-(2,5-difluorophenyl)pyrrolidin-1-yl)pyrazolo[1,5-a]pyrimidin-3-yl)-1-(piperazin-1-yl)prop-2-en-1-one]	< 10	< 10	< 100
CN(C)C(=O)/C=C/c1cnn2ccc(N3CCCC3c3cncc(F)c3)nc12 (stereo not drawn) [Chemical Compound 40, (E)-3-(5-(2-(5-fluoropyridin-3-yl)pyrrolidin-1-yl)pyrazolo[1,5-a]pyrimidin-3-yl)-N,N-dimethylacryl-amide]	< 10	< 1000	< 100
CCc1nnc(-c2cnn3ccc(N4CCCC4c4cncc(F)c4)nc23)s1 (stereo not drawn) [Chemical Compound 12, 2-ethyl-5-(5-(2-(5-fluoropyridin-3-yl)pyrrolidin-1-yl)pyrazolo[1,5-a]pyrimidin-3-yl)-1,3,4-thiadiazole]	< 10	< 100	< 100
CC(C)c1nnc(-c2cnn3ccc(N4CCCC4c4cc(F)ccc4F)nc23)o1 (stereo not drawn) [Chemical Compound 5, 2-(5-(2-(2,5-difluorophenyl)pyrrolidin-1-yl)pyrazolo[1,5-a]pyrimidin-3-yl)-5-isopropyl-1,3,4-oxadiazole]	< 10	< 10	< 10
CCc1nnc(-c2cnn3ccc(N4CCCC4c4cc(F)ccc4F)nc23)o1 (stereo not drawn) [Chemical Compound 3, 2-(5-(2-(2,5-difluorophenyl)pyrrolidin-1-yl)pyrazolo[1,5-a]pyrimidin-3-yl)-5-ethyl-1,3,4-oxadiazole]	< 10	< 100	< 10
Cc1nnc(-c2cnn3ccc(N4CCCC4c4cc(F)ccc4F)nc23)o1 (stereo not drawn) [Chemical Compound 1, 2-(5-(2-(2,5-difluorophenyl)pyrrolidin-1-yl)pyrazolo[1,5-a]pyrimidin-3-yl)-5-methyl-1,3,4-oxadiazole]	< 10	< 100	< 100
CC(C)c1nnc(-c2cnn3ccc(N4CCC[C@@H]4c4cncc(F)c4)nc23)s1 [Chemical Compound 17, (R)-2-(5-(2-(5-fluoropyridin-3-yl)pyrrolidin-1-yl)pyrazolo[1,5-a]pyrimidin-3-yl)-5-isopropyl-1,3,4-thiadiazole]	< 10	< 10	< 10
O=C(/C=C/c1cnn2ccc(N3CCC[C@@H]3c3cc(F)ccc3F)nc12)N1CC[C@H](O)C1 [Chemical Compound 60, (E)-3-(5-((R)-2-(2,5-difluorophenyl)pyrrolidin-1-yl)pyrazolo[1,5-a]pyrimidin-3-yl)-1-((S)-3-hydroxypyrrolidin-1-yl)prop-2-en-1-one]	< 10	< 100	
CN(C)C(=O)/C=C/c1cnn2ccc(N3CCCC3c3cc(F)ccc3F)nc12 (stereo not drawn) [Chemical Compound 45, (E)-3-(5-(2-(2,5-difluorophenyl)pyrrolidin-1-yl)pyrazolo[1,5-a]pyrimidin-3-yl)-N,N-dimethylacrylamide]	< 10	< 100	< 100
Fc1ccc(F)c(C2CCCN2c2ccn3ncc(-c4nnc(C5CC5)s4)c3n2)c1 (stereo not drawn) [Chemical Compound 8, 2-cyclopropyl-5-(5-(2-(2,5-difluorophenyl)pyrrolidin-1-yl)pyrazolo[1,5-a]pyrimidin-3-yl)-1,3,4-thiadiazole]	< 10	< 100	< 10
CCc1nnc(-c2cnn3ccc(N4CCCC4c4cc(F)ccc4F)nc23)s1 (stereo not drawn) [Chemical Compound 4, 2-(5-(2-(2,5-difluorophenyl)pyrrolidin-1-yl)pyrazolo[1,5-a]pyrimidin-3-yl)-5-ethyl-1,3,4-thiadiazole]	< 10	< 100	< 10
CC(C)(C)c1nnc(-c2cnn3ccc(N4C[C@@H](F)C[C@H]4c4cc(F)ccc4F)nc23)o1 [Chemical Compound 27, 2-tert-butyl-5-(5-((2S,4S)-2-(2,5-difluorophenyl)-4-fluoropyrrolidin-1-yl)pyrazolo[1,5-a]pyrimidin-3-yl)-1,3,4-oxadiazole]	> 100	> 1000	> 1000
CC(C)(C)NC(=O)/C=C/c1cnn2ccc(N3CCCC3c3cc(F)ccc3F)nc12 (stereo not drawn) [Chemical Compound 44, (E)-N-tert-butyl-3-(5-(2-(2,5-difluorophenyl)pyrrolidin-1-yl)pyrazolo-[1,5-a]pyrimidin-3-yl)acrylamide]	< 10	< 100	< 100
CN1CCN(C(=O)/C=C/c2cnn3ccc(N4CCC[C@@H]4c4cc(F)ccc4F)nc23)CC1 [Chemical Compound 53, (R,E)-3-(5-(2-(2,5-difluorophenyl)pyrrolidin-1-yl)pyrazolo[1,5-a]pyrimidin-3-yl)-1-(4-methylpiperazin-1-yl)prop-2-en-1-one]	< 10	< 100	
(R,E)-3-(5-(2-(2,5-difluorophenyl)pyrrolidin-1-yl)pyrazolo[1,5-a]pyrimidin-3-yl)-1-(4-hydroxypiperidin-1-yl)prop-2-en-1-one [Chemical Compound 57]	< 10	< 100	
